pIC50: −log10 of the molar value.
Target: Poly [ADP-ribose] polymerase 1 (Homo sapiens, UniProt P09874)
Experiment: Enzyme Inhibitory Assay: The activity of the compounds according to the present invention to inhibit the PARP-1 enzyme was examined using a PARP Assay kit (4671-096-K) purchased from Trevigen. The assay was performed following a modified previously reported method by Lee et al [Methods Find, Exp. Clin. Pharmacol., 27, 617-622, 2005].Histone was coated on 384-well plate, which is a small volume PS plate (784101) of Greiner Bio-One, and left at 25 C. for 2 hours. After that, the plate was rinsed four times with PBS (7.5 mM Na2HPO4, 2.5 mM NaH2PO4, 145 mM NaCl, pH 7.4), and in order to prevent non-specific reaction, the Strep-diluent (provided from kit of Trevigen) was added and left at 25 C. for one hour. After one hour, the plate was again rinsed with PBS four times, and the compounds of the Examples in various concentrations were put into reactant containing PARP-1 enzyme (0.12 unit/well), 2x PARP cocktail.

Sequence of Poly [ADP-ribose] polymerase 1 (P09874 whole entry): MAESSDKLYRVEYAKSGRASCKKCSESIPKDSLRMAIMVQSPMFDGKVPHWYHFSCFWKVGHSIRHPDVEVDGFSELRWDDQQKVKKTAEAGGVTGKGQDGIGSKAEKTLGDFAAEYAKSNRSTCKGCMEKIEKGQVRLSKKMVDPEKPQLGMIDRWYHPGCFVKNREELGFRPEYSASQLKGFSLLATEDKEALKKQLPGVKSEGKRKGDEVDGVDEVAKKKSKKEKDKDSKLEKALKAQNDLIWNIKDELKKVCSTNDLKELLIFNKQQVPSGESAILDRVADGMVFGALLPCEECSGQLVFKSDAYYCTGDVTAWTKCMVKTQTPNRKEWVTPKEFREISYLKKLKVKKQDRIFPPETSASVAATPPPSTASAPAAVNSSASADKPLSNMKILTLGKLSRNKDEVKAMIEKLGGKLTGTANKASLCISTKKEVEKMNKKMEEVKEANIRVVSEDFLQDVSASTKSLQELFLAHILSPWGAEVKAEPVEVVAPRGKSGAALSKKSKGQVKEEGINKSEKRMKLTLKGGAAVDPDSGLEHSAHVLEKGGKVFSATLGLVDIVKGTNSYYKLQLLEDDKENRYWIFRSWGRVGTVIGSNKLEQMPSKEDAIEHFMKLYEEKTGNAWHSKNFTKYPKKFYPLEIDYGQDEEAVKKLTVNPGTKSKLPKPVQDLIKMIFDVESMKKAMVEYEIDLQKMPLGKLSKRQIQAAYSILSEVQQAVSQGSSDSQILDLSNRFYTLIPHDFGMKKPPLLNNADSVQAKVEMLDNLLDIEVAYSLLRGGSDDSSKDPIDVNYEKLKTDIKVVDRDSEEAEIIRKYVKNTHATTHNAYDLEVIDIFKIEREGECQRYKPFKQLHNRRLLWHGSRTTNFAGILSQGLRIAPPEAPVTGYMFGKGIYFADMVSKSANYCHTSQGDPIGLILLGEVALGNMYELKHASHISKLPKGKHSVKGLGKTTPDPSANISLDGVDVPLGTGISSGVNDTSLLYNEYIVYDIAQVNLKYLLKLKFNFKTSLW

For CN(C)CCOc1ccc2c3c(c(=O)[nH]c2c1)CCCN3, the pIC50 was 5.79.

COc1cc(C[N+](C)(C)C2CCCC2)cc2[nH]c(=O)c3c(c12)NCCC3 showed a pIC50 of 6.54.

CN(C)Cc1cc(O)c2c3c(c(=O)[nH]c2c1)CCCN3 gave a pIC50 of 6.12.

From ChEMBL document CHEMBL3638589, “Tricyclic derivative or pharmaceutically acceptable salts thereof, preparation method thereof, and pharmaceutical composition containing the same” (2014)
